One experiment has as its target T1, human CB1 receptors (Homo sapiens, UniProt P21554).
T1 construct: expressed in transfected cells; host or cells: CHO cells
Kind of experiment: cAMP assay. In kind it is cell-based. On the procedure:
(§1) CHO cells expressing human CB1 or CB2 receptors are seeded 17-24 hours prior to the experiment 50.000 cells per well in a black 96 well plate with flat clear bottom (Corning Costar #3904) in DMEM (Invitrogen No. 31331), 1×HT supplement, with 10% fetal calf serum and incubated at 5% CO2 and 37° C. in a humidified incubator. The growth medium was exchanged with Krebs Ringer Bicarbonate buffer with 1 mM IBMX and incubated at 30° C. for 30 min. Compounds were added to a final assay volume of 100 μl and incubated for 30 min at 30° C. Using the cAMP-Nano-TRF detection kit the assay (Roche Diagnostics) was stopped by the addition of 50 μl lysis reagent (Tris, NaCl, 1.5% Triton X100, 2.5% NP40, 10% NaN3) and 50 μl detection solutions (20 μM mAb Alexa700-cAMP 1:1, and 48 μM Ruthenium-2-AHA-cAMP) and shaken for 2 h at room temperature. The time-resolved energy transfer is measured by a TRF reader (Evotec Technologies GmbH), equipped with a ND:YAG laser as excitation source. The plate is measured twice with the excitation at 355 nm and at the emission with a delay of 100 ns and a gate of 100 ns, total exposure time 10 s at 730 (bandwidth 30 nm) or 645 nm (bandwidth 75 nm), respectively. The FRET signal is calculated as follows: FRET=T730-Alexa730-P(T645-B645) with P=Ru730-B730/Ru645-B645, where T730 is the test well measured at 730 nM, T645 is the test well measured at 645 nm, B730 and B645 are the buffer controls at 730 nm and 645 nm, respectively. cAMP content is determined from the function of a standard curve spanning from 10 μM to 0.1 nM cAMP.
(§2) EC50 values were determined using Activity Base analysis (ID Business Solution, Limited). The EC50 values for a wide range of cannabinoid agonists generated from this assay were in agreement with the values published in the scientific literature.

Another experiment concerns the target T2, human CB2 receptors (Homo sapiens, UniProt P34972).
T2 construct: expressed in transfected cells; host or cells: CHO cells
In words: cAMP assay. In kind it is cell-based. On the procedure: as §1, §2

Where [1] appears, read: functional cAMP assay, CHO cells expressing human CB2, read-out: human CB2 EC50.

In US9067943B2, “[1,2,3]triazolo[4,5-D]pyrimidine derivatives” (priority 2011, dated 2015) one finds EC50 data, which are given here for 25 molecules.

The structures appear in SMILES notation. Read-outs that look alike come from different tables or passages of the source.

T1 sequence (P21554 whole entry): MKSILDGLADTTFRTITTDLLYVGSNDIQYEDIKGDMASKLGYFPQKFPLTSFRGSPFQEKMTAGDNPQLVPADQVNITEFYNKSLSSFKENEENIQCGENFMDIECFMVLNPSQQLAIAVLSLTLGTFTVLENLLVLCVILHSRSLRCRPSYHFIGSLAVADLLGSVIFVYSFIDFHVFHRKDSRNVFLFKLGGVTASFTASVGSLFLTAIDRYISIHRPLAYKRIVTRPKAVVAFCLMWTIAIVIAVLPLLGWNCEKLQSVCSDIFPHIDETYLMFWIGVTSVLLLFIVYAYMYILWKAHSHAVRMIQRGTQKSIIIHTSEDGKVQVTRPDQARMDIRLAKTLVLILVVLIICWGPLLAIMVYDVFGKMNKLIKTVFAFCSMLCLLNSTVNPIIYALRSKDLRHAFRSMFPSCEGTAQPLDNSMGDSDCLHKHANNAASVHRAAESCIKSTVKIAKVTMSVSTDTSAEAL
T2 sequence (P34972 whole entry): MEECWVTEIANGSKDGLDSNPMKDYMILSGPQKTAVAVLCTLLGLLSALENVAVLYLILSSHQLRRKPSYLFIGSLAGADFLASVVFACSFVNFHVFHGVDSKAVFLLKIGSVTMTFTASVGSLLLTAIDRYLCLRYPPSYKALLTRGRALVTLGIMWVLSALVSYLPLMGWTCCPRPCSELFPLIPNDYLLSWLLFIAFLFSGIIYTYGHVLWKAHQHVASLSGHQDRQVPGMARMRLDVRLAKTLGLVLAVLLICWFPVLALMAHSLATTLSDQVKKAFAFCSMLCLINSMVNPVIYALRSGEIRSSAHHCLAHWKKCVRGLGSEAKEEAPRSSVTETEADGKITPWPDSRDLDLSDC

For `COc1ccccc1Cn1nc2nc(C(C)(C)C)nc(N3CCC(F)(F)C3)c2n1` [Example 23, 5-tert-Butyl-7-(3,3-difluoro-pyrrolidin-1-yl)-2-(2-methoxy-benzyl)-2H-[1,2,3]triazolo[4,5-d]pyrimidine], the EC50 on human CB1 receptors was 0.086 µM; on human CB2 receptors, 0.0002 µM.

On to `CC(C)(C)c1nc(N2CCC(F)(F)C2)c2nn(Cc3nc(Cl)ccc3Cl)nc2n1` [Example 38, 5-tert-Butyl-2-(3,6-dichloro-pyridin-2-ylmethyl)-7-(3,3-difluoro-pyrrolidin-1-yl)-2H-[1,2,3]triazolo[4,5-d]pyrimidine], for which the EC50 on human CB1 receptors amounted to 0.0986 µM; at human CB2 receptors it was 0.0011 µM. On the same counts, the results for `CC(C)(C)c1nc(N2CCC(F)(F)C2)c2nn(CC(=O)c3ccccn3)nc2n1` [Example 64, 2-[5-tert-Butyl-7-(3,3-difluoro-pyrrolidin-1-yl)-[1,2,3]triazolo[4,5-d]pyrimidin-2-yl]-1-pyridin-2-yl-ethanone] are over 10 µM and 0.0024 µM. The matching figures for `CC(C)(C)c1nc(N2CCC(F)(F)C2)c2nn(CC(=O)c3ccccc3Cl)nc2n1` [Example 47, 2-[5-tert-Butyl-7-(3,3-difluoro-pyrrolidin-1-yl)-[1,2,3]triazolo[4,5-d]pyrimidin-2-yl]-1-(2-chloro-phenyl)-ethanone]: over 10 µM and 0.0006 µM. On the same counts, the results for `Cc1nnc(Cn2nc3nc(C(C)(C)C)nc(N4CC(F)(F)C(F)(F)C4)c3n2)o1` [Example 101, 5-tert-Butyl-2-(5-methyl-[1,3,4]oxadiazol-2-ylmethyl)-7-(3,3,4,4-tetrafluoro-pyrrolidin-1-yl)-2H-[1,2,3]triazolo[4,5-d]pyrimidine] are over 10 µM and 0.0157 µM. Take `CC(C)(C)c1nc(N2CCC(F)(F)C2)c2nn(Cc3ccccc3OC(F)(F)F)nc2n1` [Example 24, 5-tert-Butyl-7-(3,3-difluoro-pyrrolidin-1-yl)-2-(2-trifluoromethoxy-benzyl)-2H-[1,2,3]triazolo[4,5-d]pyrimidine]: the EC50 on human CB1 receptors was over 10 µM; on human CB2 receptors it was 0.0004 µM. On the same counts, the results for `Cc1nonc1Cn1nc2nc(C(C)(C)C)nc(N3CC[C@@](C)(O)C3)c2n1` [Example 131-b, (R)-1-[5-tert-Butyl-2-(4-methyl-furazan-3-ylmethyl)-2H-[1,2,3]triazolo[4,5-d]pyrimidin-7-yl]-3-methyl-pyrrolidin-3-ol] are over 10 µM and 0.0614 µM. On the same counts, the results for `Cc1nnc(Cn2nc3nc(C(C)(C)C)nc(N4CCC(F)(F)C4)c3n2)o1` [Example 65, 5-tert-Butyl-7-(3,3-difluoro-pyrrolidin-1-yl)-2-(5-methyl-[1,3,4]oxadiazol-2-ylmethyl)-2H-[1,2,3]triazolo[4,5-d]pyrimidine] are over 10 µM and 0.0186 µM. For `CC(C)(C)c1nc(N2CCC(F)(F)C2)c2nn(Cc3ccc(Cl)cc3)nc2n1` [Example 8, 5-tert-Butyl-2-(4-chloro-benzyl)-7-(3,3-difluoro-pyrrolidin-1-yl)-2H-[1,2,3]triazolo[4,5-d]pyrimidine], the EC50 was over 10 µM at human CB1 receptors and 0.0065 µM at human CB2 receptors. On the same counts, the results for `CC(C)(C)c1nc(N2CCC(F)(F)C2)c2nn(Cc3ccccc3C#N)nc2n1` [Example 25, 2-[5-tert-Butyl-7-(3,3-difluoro-pyrrolidin-1-yl)-[1,2,3]triazolo[4,5-d]pyrimidin-2-ylmethyl]-benzonitrile] are 0.205 µM and 0.0001 µM.

For the molecule `CC(C)(C)c1nc(N2CCC(F)(F)C2)c2nn(Cc3cc(F)ccc3Cl)nc2n1` [Example 31, 5-tert-Butyl-2-(2-chloro-5-fluoro-benzyl)-7-(3,3-difluoro-pyrrolidin-1-yl)-2H-[1,2,3]triazolo[4,5-d]pyrimidine], the midpoint of the response at human CB2 receptors, the EC50, lay at 0.0005 µM. `CC(C)(C)c1nc(N2CCC(F)(F)C2)c2nn(CCc3ccc(Cl)cc3)nc2n1` [Example 43, 5-tert-Butyl-2-[2-(4-chloro-phenyl)-ethyl]-7-(3,3-difluoro-pyrrolidin-1-yl)-2H-[1,2,3]triazolo[4,5-d]pyrimidine]: the EC50 is over 10 µM on human CB1 receptors and 0.022 µM at human CB2 receptors. For `CC(C)(C)c1nc(N2CCOCC2)c2nn(Cc3ccc(F)cc3Cl)nc2n1` [Example 2, 5-tert-Butyl-2-(2-chloro-4-fluoro-benzyl)-7-morpholin-4-yl-2H-[1,2,3]triazolo[4,5-d]pyrimidine], the EC50 on human CB1 receptors was over 10 µM; on human CB2 receptors, 0.0022 µM. On the same counts, the results for `CC(C)(C)c1nc(N2CCC(F)(F)C2)c2nn(Cc3cccc(C(F)(F)F)c3Cl)nc2n1` [Example 56, 5-tert-Butyl-2-(2-chloro-3-trifluoromethyl-benzyl)-7-(3,3-difluoro-pyrrolidin-1-yl)-2H-[1,2,3]triazolo[4,5-d]pyrimidine] are over 10 µM and 0.0126 µM.

Take `CC(C)(C)c1nc(N2CCC(F)(F)C2)c2nn(Cc3c(C(F)(F)F)ccc(Cl)c3Cl)nc2n1` [Example 60, 5-tert-Butyl-2-(2,3-dichloro-6-trifluoromethyl-benzyl)-7-(3,3-difluoro-pyrrolidin-1-yl)-2H-[1,2,3]triazolo[4,5-d]pyrimidine]: the EC50 at human CB1 receptors was over 10 µM; at human CB2 receptors, 0.0127 µM.

With `CC(=O)N[C@H]1CCN(c2nc(O[C@@H](C)C(F)(F)F)nc3nn(Cc4ccccc4S(C)(=O)=O)nc23)C1` [Example 143, N—{(S)-1-[2-(2-Methanesulfonyl-benzyl)-5-((S)-2,2,2-trifluoro-1-methyl-ethoxy)-2H-[1,2,3]triazolo[4,5-d]pyrimidin-7-yl]-pyrrolidin-3-yl}-acetamide], the EC50 at human CB1 receptors is over 10 µM; at human CB2 receptors (setting [1]), 1.73 µM. For `CC(C)(C)c1nc(N2CC[C@H](O)C2)c2nn(Cc3cccc(Cl)c3Cl)nc2n1` [Example 78, (S)-1-[5-tert-Butyl-2-(2,3-dichloro-benzyl)-2H-[1,2,3]triazolo[4,5-d]pyrimidin-7-yl]-pyrrolidin-3-ol], the EC50 on human CB1 receptors is over 10 µM; at human CB2 receptors, 0.006 µM. As for `Cc1cc(Cn2nc3nc(C(C)(C)C)nc(N4CC[C@H](O)C4)c3n2)n(C)n1` [Example 91, (S)-1-[5-tert-Butyl-2-(2,5-dimethyl-2H-pyrazol-3-ylmethyl)-2H-[1,2,3]triazolo[4,5-d]pyrimidin-7-yl]-pyrrolidin-3-ol], the EC50 at human CB1 receptors was over 10 µM; on human CB2 receptors (setting [1]), 0.124 µM.

As to `CC(C)(C)c1nc(N2CCC(F)(F)C2)c2nn(C3COC3)nc2n1` [Example 32, 5-tert-Butyl-7-(3,3-difluoro-pyrrolidin-1-yl)-2-oxetan-3-yl-2H-[1,2,3]triazolo[4,5-d]pyrimidine], the EC50 on human CB2 receptors is 0.019 µM. Regarding `Cn1nnnc1Cn1nc2nc(NC(C)(C)C)nc(N3CCC(F)(F)C3)c2n1` [Example 139, tert-Butyl-[7-(3,3-difluoro-pyrrolidin-1-yl)-2-(1-methyl-1H-tetrazol-5-ylmethyl)-2H-[1,2,3]triazolo[4,5-d]pyrimidin-5-yl]-amine], the values for the EC50 at human CB1 receptors and on human CB2 receptors were over 10 µM and 0.0281 µM, respectively. The matching figures for `CC(C)(C)c1nc(N2CC[C@](C)(O)C2)c2nn(Cc3ccccc3C(F)(F)F)nc2n1` [Example 125-a, (S)-1-[5-tert-Butyl-2-(2-trifluoromethyl-benzyl)-2H-[1,2,3]triazolo[4,5-d]pyrimidin-7-yl]-3-methyl-pyrrolidin-3-ol]: 0.398 µM and 0.0004 µM.

Turning to `C[C@H](Oc1nc(N2CCC(F)(F)C2)c2nn(Cc3ccccc3S(C)(=O)=O)nc2n1)C(F)(F)F` [Example 116, 7-(3,3-Difluoro-pyrrolidin-1-yl)-2-(2-methanesulfonyl-benzyl)-5-((S)-2,2,2-trifluoro-1-methyl-ethoxy)-2H-[1,2,3]triazolo[4,5-d]pyrimidine], the results for the EC50 at human CB1 receptors and on human CB2 receptors were over 10 µM and 0.0231 µM, respectively. In the case of `CC(C)(C)c1nc(N2CC[C@@](C)(O)C2)c2nn(Cc3nnnn3C3CC3)nc2n1` [Example 133-b, (R)-1-[5-tert-Butyl-2-(1-cyclopropyl-1H-tetrazol-5-ylmethyl)-2H-[1,2,3]triazolo[4,5-d]pyrimidin-7-yl]-3-methyl-pyrrolidin-3-ol], the EC50 on human CB1 receptors was over 10 µM; on human CB2 receptors (setting [1]), 0.547 µM. Turning to `CC(C)(C)c1nc(N2CCC(F)(F)C2)c2nn(CC(=O)c3cccnc3)nc2n1` [Example 54, 2-[5-tert-Butyl-7-(3,3-difluoro-pyrrolidin-1-yl)-[1,2,3]triazolo[4,5-d]pyrimidin-2-yl]-1-pyridin-3-yl-ethanone], the EC50 was over 10 µM at human CB1 receptors and 0.0065 µM at human CB2 receptors. The molecule `CC(C)(C)c1nc(N2CCC(F)(F)C2)c2nn(Cc3cccc(F)c3Cl)nc2n1` [Example 30, 5-tert-Butyl-2-(2-chloro-3-fluoro-benzyl)-7-(3,3-difluoro-pyrrolidin-1-yl)-2H-[1,2,3]triazolo[4,5-d]pyrimidine] gave an EC50 at human CB2 receptors of 0.0007 µM.
